These results are taken from US7608724B2, “Antibacterial and/or antiprotozoal nitromidazole derivative compounds with urease inhibitor activity, process for preparing these compounds and use in pharmaceutical compositions and medicines” (EMS S.A., priority 2003, dated 2009).

Series [1] relates to Salmonella typhimurium T-100 strain. As to the kind of experiment: Ames Test without metabolic activation (−S9), mutagenic activity. The format is cell-based. To be noted: for revertant colonies per plate (mean ± standard deviation): −S9, T-100 strain; for mutagenic rate (RM): −S9, positive response ≧2. How it is done:
The mutagenic activity of the compounds were evaluated by The Ames Test without metabolic activation (−S9), with Salmonella typhimurium T-100 strain. The test is based in the fact that indicating S. typhimurium strains are sensitive to substances capable of inducing different kinds of mutation. In the presence of mutagenic agents, these strains revert the character of histidine auxotrophic synthesis, and start forming colonies in a medium were this aminoacid is absent. The mutagenic activity of a compound as its concentration function is established by counting the number of colonies per plate.
The final data obtained were analyzed by using Salanal software (Salmonella Assay Analysis) Version 1.0 from Research Triangle Institute, RTP, North Carolina, USA. This software allows to evaluate the dose-answer response by performing an analysis of variance (ANOVA f-test) between the mean revertants number in the different tested concentrations (doses) and the negative control, followed by a linear regression. […] The slope of the linear part of response-dosage curve is also furnished by the program and it corresponds to the number of revertants induced per mg of the sample analyzed.
MR is calculated by the following equation: […]

In a further series the test system is urease. The series is described as follows: Urease inhibiting test (phenol red, formation of ammonium from urea). In kind it is biochemical. The following applies: molar concentration of 30 nM. The procedure:
Urease inhibition is evaluated by the assay based on RUÍZ-HERRERA, J; GONZALEZ, L. A (1969) and has the objective to verify in the visible spectra, by using phenol red as indicator, the formation of ammonium from urea according to the following reaction: […]

Take `Cc1ncc([N+](=O)[O-])n1CCOC(=O)CCC(=O)NC(=S)NC(=O)CCC(=O)OCCn1c([N+](=O)[O-])cnc1C` [Example 5, Bis[2-(2-methyl-5-nitro-1H-imidazol-1-yl)ethyl]4,4′[(thioxomethylene)diimine]bis(4-oxobutanoate)]: the “revertant colonies per plate (mean ± standard deviation)” value is reported as 162 ± 29 colonies per plate in series [1] (2.9 (mM)/plate); 316 ± 19 colonies per plate in series [1] (14.6 (mM)/plate); 606 ± 94 colonies per plate in series [1] (29.2 (mM)/plate); 1095 ± 100 colonies per plate in series [1] (58.4 (mM)/plate); 1582 ± 79 colonies per plate in series [1] (116.9 (mM)/plate). Besides, the “mutagenic rate (RM)” value in series [1] (2.9 (mM)/plate) is reported as “RM = 1.3”; in series [1] (14.6 (mM)/plate), “RM = 2.5”; in series [1] (29.2 (mM)/plate), “RM = 4.8”; in series [1] (58.4 (mM)/plate), “RM = 8.7”; in series [1] (116.9 (mM)/plate), “RM = 12.5”. For the same molecule, the “mutagenic activity compared with metronidazole parent drug or its monosuccinate ester (example 1)” value in series [1] (FIG. 1, from table 1) is recorded as “very inferior”. Also, the Urease inhibiting percentage in the series with urease (1 minute) amounted to 74%; with urease (2 minutes) it was 67%; in the series on urease (3 minutes), 65%.
As to `Cc1ncc([N+](=O)[O-])n1CCO` [Metronidazole, 2-(2-methyl-5-nitro-1H-imidazol-1-yl)ethanol], the Urease inhibiting percentage is recorded as 6% in the series on urease (1 minute), 7% in the series with urease (2 minutes) and 7% in the series with urease (3 minutes).
For `NC(N)=S` [Tiourea, thiourea], the Urease inhibiting percentage in the series with urease (1 minute) worked out at 23%; in the series on urease (2 minutes) it was 16%; in the series on urease (3 minutes), 17%.
